{
  "source": "patent US8940897B2",
  "about": "“1,3,4-oxadiazole and 1,3,4-thiadiazole β-lactamase inhibitors” (priority 2012, dated 2015)",
  "key": {"[1]": {"tested_on": "bacterial strains that express the class D cephalosporinase OXA-15", "experiment": "Synergy MIC / standard BLI potentiation MIC assay, strains expressing OXA-15;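 also: more active means a lower MIC or sMIC than Avibactam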", "type": "cell-based, E. coli", "conditions": "in the presence of a β-lactam; comparator Avibactam (CCC)", "experimental": "(§1) Unless otherwise indicated, the activity of the BLI compounds can be described by the MIC value obtained from a Synergy MIC assay or a BLI potentiation assay (e.g as described herein), both of which are run in the presence of a β-lactam.\n(§2) The experimental protocol was performed according to Clinical and Laboratory Standards Institute (CLSI) guidelines with modifications as described below (CLSI guidelines can be derived from the CLSI document M07-A9 published in January 2012: “Methods for Dilution Antimicrobial Susceptibility Tests for Bacteria That Grow Aerobically; Approved Standard-Ninth Edition”).\n(§3) To prepare for MIC testing, frozen glycerol stocks of clinical isolates (Klebsiella pneumoniae, Eschericia coli, Enterobacter spp, Citrobacter spp, or Pseudomonas aeruginosa) were used to streak for isolated colonies on rich, non-selective, tryptic soy agar containing 5% sheep's blood (TSAB). Frozen glycerol stocks of laboratory engineered, isogenic E. coli strains, which contain cloned β-lactamase expressing plasmids were used to streak for isolated colonies on rich, selective LB agar supplemented with 25 μg/mL tetracycline to maintain the plasmid. All strains were incubated at 37° C. for 18-24 hrs.\n(§4) On the day of testing, primary cultures were started by scraping off 5-10 colonies from the TSAB plates containing clinical strains or the tetracycline supplemented LB plates containing engineered strains. The clinical strain material was suspended in ˜5 mL of cation adjusted Mueller Hinton Broth (CAMHB) in 14 mL culture tubes. The engineered strain material was suspended in CAMHB (supplemented with 25 μg/mL tetracycline) in 14 mL culture tubes. All strains were incubated at 37° C. with aeration (200 rpm) for ˜2 hrs until the optical density at 600 nm (OD600) was ≧0.1.\n(§5) The two compound components of the assay were each diluted in CAMHB and added to the 96-well broth microdilution assay plates. 50 μL of the β-lactam was added to each well of the assay plate in 2-fold dilutions with final concentrations ranging from 128 to 0.13 μg/mL. 25 μL of the BLI compound was added to all wells in the broth microdilution plates at a final concentration of 4 μg/mL. Inoculum cultures were prepared by standardizing the primary cultures to OD600=0.1 and then adding 20 μL of the adjusted primary culture per 1 mL CAMHB for clinical strains or CAMHB (supplemented with tetracycline at 100 μg/mL) for engineered strains, so that the final inoculum density was ˜10^5 colony forming units per milliliter. Diluted inoculum cultures were used to inoculate 25 μl, per well in 96-well broth microdilution assay plates. The final volume of each well was 100 μL and contained a β-lactam at different concentrations, a BLIcompound at 4 μg/mL concentration, the bacterial culture at an OD600 of approximately 0.001 and when necessary tetracycline at 25 μg/mL.\n(§6) Plates were incubated for 18-20 hours at 37° C. with aeration (200 rpm). Following incubation, growth was confirmed visually placing plates over a viewing apparatus (stand with a mirror underneath) and then OD600 was measured using a SpectraMax 340PC384 plate reader (Molecular Devices, Sunnyvale, Calif.). Growth was defined as turbidity that could be detected with the naked eye or achieving minimum OD600 of 0.1. MIC values were defined as the lowest concentration producing no visible turbidity.\n(§7) The synergy MIC (sMIC) assay determines the concentration of the BLI required to potentiate the activity of a fixed concentration of a β-lactam antibiotic against β-lactamase producing bacterial strains. The experimental protocol was performed according to Clinical and Laboratory Standards Institute (CLSI) guidelines with modifications as described below (CLSI guidelines can be derived from the CLSI document M07-A9 published in January 2012: “Methods for Dilution Antimicrobial Susceptibility Tests for Bacteria That Grow Aerobically; Approved Standard-Ninth Edition”). […]"}, "[2]": {"tested_on": "bacterial strains that express KPC β-lactamases", "experiment": "Synergy MIC / standard BLI potentiation MIC assay, strains expressing KPC β-lactamases", "type": "cell-based", "conditions": "for at least one KPC strain and/or a better spectrum of activity against KPC strains than Avibactam; in the presence of a β-lactam", "experimental": "as §1, §2, §3, §4, §5, §6, §7"}},
  "note": "Where a name gives a salt, the structure may show the parent alone.",
  "data": [
    {"smiles": "N[C@H]1C[C@@H](Cc2nnc([C@@H]3CC[C@@H]4CN3C(=O)N4OS(=O)(=O)O)o2)C1", "note": "[Compound 728, (2S,5R)-2-(5-(((1s,3R)-3-aminocyclobutyl)methyl)-1,3,4-oxadiazol-2-yl)-7-oxo-1,6-diazabicyclo[3.2.1]octan-6-yl hydrogen sulfate]", "values": [
      {"measurement": "activity against bacterial strains that express OXA-15 β-lactamase compared with Avibactam", "setting": "[1]", "result": "more active than Avibactam"},
      {"measurement": "activity against bacterial strains that express KPC β-lactamase compared with Avibactam", "setting": "[2]", "result": "more active than Avibactam"}
    ]},
    {"smiles": "N[C@@H]1CC[C@H](c2nnc([C@@H]3CC[C@@H]4CN3C(=O)N4OS(=O)(=O)O)o2)C1", "note": "[Compound 729, (2S,5R)-2-(5-((1S,3R)-3-aminocyclopentyl)-1,3,4-oxadiazol-2-yl)-7-oxo-1,6-diazabicyclo[3.2.1]octan-6-yl hydrogen sulfate]", "values": [
      {"measurement": "activity against bacterial strains that express OXA-15 β-lactamase compared with Avibactam", "setting": "[1]", "result": "more active than Avibactam"},
      {"measurement": "activity against bacterial strains that express KPC β-lactamase compared with Avibactam", "setting": "[2]", "result": "more active than Avibactam"}
    ]},
    {"smiles": "N=C(N)NCC(O)Cc1nnc([C@@H]2CC[C@@H]3CN2C(=O)N3OS(=O)(=O)O)o1", "note": "(stereo partly drawn) [Compound 730, (2S,5R)-2-(5-(3-guanidino-2-hydroxypropyl)-1,3,4-oxadiazol-2-yl)-7-oxo-1,6-diazabicyclo[3.2.1]octan-6-yl hydrogen sulfate]", "values": [
      {"measurement": "activity against bacterial strains that express OXA-15 β-lactamase compared with Avibactam", "setting": "[1]", "result": "more active than Avibactam"},
      {"measurement": "activity against bacterial strains that express KPC β-lactamase compared with Avibactam", "setting": "[2]", "result": "more active than Avibactam"}
    ]},
    {"smiles": "N=C(N)NC[C@@H](O)c1nnc([C@@H]2CC[C@@H]3CN2C(=O)N3OS(=O)(=O)O)o1", "note": "[Compound 731, (2S,5R)-2-(5-((R)-2-guanidino-1-hydroxyethyl)-1,3,4-oxadiazol-2-yl)-7-oxo-1,6-diazabicyclo[3.2.1]octan-6-yl hydrogen sulfate]", "values": [
      {"measurement": "activity against bacterial strains that express OXA-15 β-lactamase compared with Avibactam", "setting": "[1]", "result": "more active than Avibactam"},
      {"measurement": "activity against bacterial strains that express KPC β-lactamase compared with Avibactam", "setting": "[2]", "result": "more active than Avibactam"}
    ]},
    {"smiles": "N=C(N)NC[C@H](O)c1nnc([C@@H]2CC[C@@H]3CN2C(=O)N3OS(=O)(=O)O)o1", "note": "[Compound 732, (2S,5R)-2-(5-((S)-2-guanidino-1-hydroxyethyl)-1,3,4-oxadiazol-2-yl)-7-oxo-1,6-diazabicyclo[3.2.1]octan-6-yl hydrogen sulfate]", "values": [
      {"measurement": "activity against bacterial strains that express OXA-15 β-lactamase compared with Avibactam", "setting": "[1]", "result": "more active than Avibactam"},
      {"measurement": "activity against bacterial strains that express KPC β-lactamase compared with Avibactam", "setting": "[2]", "result": "more active than Avibactam"}
    ]},
    {"smiles": "CNCCCc1nnc([C@@H]2CC[C@@H]3CN2C(=O)N3OS(=O)(=O)O)o1", "note": "[Compound 734, (2S,5R)-2-(5-(3-(methylamino)propyl)-1,3,4-oxadiazol-2-yl)-7-oxo-1,6-diazabicyclo[3.2.1]octan-6-yl hydrogen sulfate]", "values": [
      {"measurement": "activity against bacterial strains that express OXA-15 β-lactamase compared with Avibactam", "setting": "[1]", "result": "more active than Avibactam"},
      {"measurement": "activity against bacterial strains that express KPC β-lactamase compared with Avibactam", "setting": "[2]", "result": "more active than Avibactam"}
    ]},
    {"smiles": "NCCCCc1nnc([C@@H]2CC[C@@H]3CN2C(=O)N3OS(=O)(=O)O)o1", "note": "[Compound 735, (2S,5R)-2-(5-(4-aminobutyl)-1,3,4-oxadiazol-2-yl)-7-oxo-1,6-diazabicyclo[3.2.1]octan-6-yl hydrogen sulfate]", "values": [
      {"measurement": "activity against bacterial strains that express OXA-15 β-lactamase compared with Avibactam", "setting": "[1]", "result": "more active than Avibactam"},
      {"measurement": "activity against bacterial strains that express KPC β-lactamase compared with Avibactam", "setting": "[2]", "result": "more active than Avibactam"}
    ]},
    {"smiles": "O=C1N2C[C@@H](CC[C@H]2c2nnc(CCNCCO)o2)N1OS(=O)(=O)O", "note": "[Compound 736, (2S,5R)-2-(5-(2-((2-hydroxyethyl)amino)ethyl)-1,3,4-oxadiazol-2-yl)-7-oxo-1,6-diazabicyclo[3.2.1]octan-6-yl hydrogen sulfate]", "values": [
      {"measurement": "activity against bacterial strains that express OXA-15 β-lactamase compared with Avibactam", "setting": "[1]", "result": "more active than Avibactam"},
      {"measurement": "activity against bacterial strains that express KPC β-lactamase compared with Avibactam", "setting": "[2]", "result": "more active than Avibactam"}
    ]}
  ]
}
